The record followed here is patent publication US20070167412A1, “HALOCOMBSTATINS AND METHODS OF SYNTHESIS THEREOF” (ARIZONA BOARD OF REGENTS, priority 2003, published 2007).

≈ marks a conversion by molar mass, not a printed value. Read-outs that look alike come from different tables or passages of the source.

One data set has as its system Pancreas BXPC-3. Description: human cancer cell growth inhibition, sulforhodamine B assay. It is filed as cell-based. The following applies: Table I, 48 hours; for GI50: Homo sapiens, BXPC-3, read-out: Human cancer cell line inhibition (GI50) Pancreas-a BXPC-3. The protocol:
(§1) Inhibition of human cancer cell growth was assessed using the National Cancer Institute's standard sulforhodamine B assay. After 48 hours, the plates were fixed with trichloracetic acid, stained with sulforhodamine B and read with an automated microplate reader. […] Inhibition of the mouse leukemia P388 cells was assessed in a 10% horse serum/Fisher medium soution for 24 hours, followed by a 48 hour incubation with serial dilutions of the compounds. Cell growth inhibition (ED50) was then calculated using a Z1 Becleman/Coulter particle counter.
Background: In SRB staining, fixed cells bind dye roughly in proportion to their protein.

The next data set deals with Prostate DU-145. The description is as above. It counts as cell-based. The settings on record: Table I, 48 hours; for GI50: Homo sapiens, DU-145, read-out: Human cancer cell line inhibition (GI50) Prostate DU-145. How it is done:
as §1

Another data set deals with CNS SF268. The data set is described as above. The settings on record: Table I, 48 hours; for GI50: Homo sapiens, SF-268, read-out: Human cancer cell line inhibition (GI50) CNS SF268. It counts as cell-based. How it is done: as §1
Another data set has as its system Lung-NSC NCI-H460. The description is as above. It is filed as cell-based. The following applies: Table I, 48 hours; for GI50: Homo sapiens, NCI-H460, read-out: Human cancer cell line inhibition (GI50) Lung-NSC NCI-H460. How it is done:
as §1

In another data set the test system is Breast MCF-7. The description is as above. It is filed as cell-based. The following applies: Homo sapiens, MCF7; Table I; 48 hours; read-out: Human cancer cell line inhibition (GI50) Breast adn MCF-7. How it is done:
as §1

Another data set has as its system Colon KM20L2. The data set is described as above. It counts as cell-based. The settings on record: Table I, 48 hours; for GI50: Homo sapiens, KM-20L2, read-out: Human cancer cell line inhibition (GI50) Colon KM20L2. The protocol: as §1
The subject of another data set is T1, purified tubulin.
T1 construct: other: 10 μM tubulin, GTP 0.4 mM, 30° C., extent after 20 minutes
Description: inhibition of tubulin polymerization (turbidimetry). It counts as biochemical. How it is done:
(§2) Tubulin polymerization was evaluated by turbidimetry at 350 nm using Beckman DU7400/7500 spectrophotometers as described in detail elsewhere. […] Varying concentrations of drug were preincubated with 10 μM:M ([…]) purified tubulin (See Hamel, E., et al., Separation of Active Tubulin and Microtubule-associated Proteins by Ultracentrifiigation and Isolation of a Component Causing the Formation of Microtubule Bundles, Biochemistry 1984, 23, 4173-4184). Samples were chilled on ice, GTP (0.4 mM) was added, and polymerization was followed at 30° C. The parameter measured was extent of the reaction after 20 minutes. Coichicine binding was measured as described in detail previously. Reaction mixtures contained 1.0 μM :M tubulin, 5.0:M, [^3H]colchicine (from Dupont), and inhibitor at 1.0 μM:M. Incubation was for 10 minutes at 37° C.
Tubulin Evaluations: Tubulin polymerization was evaluated by turbidimetry at […] using Beckman DU7400/7500 spectrophotometers as known to one of skill in the art. Varying concentrations of the compound were preincubated with 10 μM. […]

Another data set concerns Staphylococcus aureus. Description: reference broth microdilution susceptibility assay. It counts as cell-based. The following applies: Table III. The text has this: (§3) The halocombstatins of the present invention appear to also have antimicrobial properties. More specifically, they appear to have antifungal and/or antibacterial properties. Antimicrobial evaluation of the halocombstatins involved susceptibility testing performed by the reference broth microdilution assay. The antimicrobial activities of the halocombstatins were very similar, targeting Gram-positive bacteria and the pathogenic fungi Cryptococcus neoformans, and results are shown in Table III.
(§4) (See Pettit, G. R., et al., Antineoplastic Agents 463. Synthesis of Combretastatin A-3 Diphosphates, Anticancer Drug Design 2000, 15, 397-404.) To determine the antimicrobial activity of the present compounds, susceptibility testing was performed by the reference broth microdilution assay. (See National Committee for Clinical Laboratory Standards. Methods for Dilution Antimicrobial Susceptibility Tests for Bacteria that Grow Aerobically. Approved Standard M7-A5. Wayne, P A: NCCLS, 2000. National Committee for Clinical Laboratory Standards. Reference Method for Broth Dilution Antifungal Susceptibility Testing of Yeasts. Aproved Standard M27-A. Wayne, P A: NCCLS, 1997.) The antimicrobial activities of the halocombretastatins of the present invention were very similar, targeting Gram-positive bacteria and Cryptococcus neoformans. This is illustrated in further detail in Table III. Thus, several of the novel compounds of the present invention appear to have potential as antimicrobial agents, such as antifingals and antibacterials.
On the technique in general: Dilution methods test growth across graded concentrations, often in twofold steps.

For another data set, the system named is Cryptococcus neoformans. Description: reference broth microdilution susceptibility assay. The following applies: Table III. It counts as cell-based.
From the text: as §3, §4

Another data set deals with Micrococcus luteus. Description: reference broth microdilution susceptibility assay. The following applies: Table III. It counts as cell-based.
From the text: as §3, §4

For another data set, the system named is Enterococcus faecalis. Description: reference broth microdilution susceptibility assay. It is filed as cell-based. The following applies: Table III.
From the text: as §3, §4

A further data set has as its system Escherichia coli. Description: reference broth microdilution susceptibility assay. It counts as cell-based. The following applies: Table III.
From the text: as §3, §4

The next data set concerns Neisseria gonorrhoeae. Description: reference broth microdilution susceptibility assay. It counts as cell-based. The settings on record: Table III.
From the text: as §3, §4

A further data set deals with Candida albicans. Description: reference broth microdilution susceptibility assay. It is filed as cell-based. The following applies: Table III.
From the text: as §3, §4

For a further data set, the system named is Streptococcus pneumoniae. Description: reference broth microdilution susceptibility assay. It counts as cell-based. The following applies: Table III.
From the text: as §3, §4

The next data set has as its system Enterobacter cloacae. Description: reference broth microdilution susceptibility assay. It is filed as cell-based. The following applies: Table III.
From the text: as §3, §4

Data set [1] concerns Stenotrophomonas maltophilia. Description: reference broth microdilution susceptibility assay. It counts as cell-based. The settings on record: Table III.
From the text: as §3, §4

The subject of the next data set is tubulin. Description: inhibition of [3H]colchicine binding to tubulin. The settings on record: 1.0 μM tubulin, 5.0 μM [3H]colchicine, inhibitor at 1.0 μM, 10 minutes at 37° C. How it is done:
as §2

What is called melting point is the temperature, or range, at which the solid turns liquid. As usually defined, the GI50 is the concentration at which growth is held to half of that of the control. Regarding `COc1ccc(/C=C/c2cc(Cl)c(OC)c(OC)c2)cc1O` [Compound 12b, 3-Chloro-4,4′,5-trimethoxy-3′-hydroxy-E-stilbene], the melting point is 138 to 140 °C. Further, the GI50 in the data set on Pancreas BXPC-3 is 0.59 µg/mL (≈ 1.84 µM). In addition, in the data set with Prostate DU-145, the GI50 amounted to 0.038 µg/mL (≈ 0.118 µM). Moreover, in the data set on CNS SF268, the GI50 worked out at 0.048 µg/mL (≈ 0.15 µM). In addition, the GI50 in the data set with Lung-NSC NCI-H460 turned out to be 0.034 µg/mL (≈ 0.106 µM). The GI50 with Breast MCF-7 turned out to be 0.041 µg/mL (≈ 0.128 µM). Also, the GI50 in the data set on Colon KM20L2 was determined as 1.4 µg/mL (≈ 4.36 µM).

Usually IC50 stands for the concentration that inhibits the measured activity by half. Take `COc1ccc(/C=C\c2cc(Br)c(OC)c(OC)c2)cc1O` [Compound 13a, 3-Bromo-4,4′,5-trimethoxy-3′-hydroxy-Z-stilbene]: the melting point lay within 108 to 109 °C. The IC50 in the data set on purified tubulin (10 μM tubulin, GTP 0.4 mM, 30° C., extent after 20 minutes, read-out: Inhibition of polymerization IC50 ± S.D.) came to 1.5 ± 0.2 µM. Moreover, in the data set with Pancreas BXPC-3, the concentration for 50% growth inhibition (GI50) turned out to be 0.16 µg/mL (≈ 0.438 µM). Moreover, the GI50 with Prostate DU-145 is less than 0.001 µg/mL. Further, the GI50 in the data set on CNS SF268 is less than 0.001 µg/mL. Also, the GI50 in the data set on Lung-NSC NCI-H460 was less than 0.001 µg/mL. Further, the GI50 in the data set on Breast MCF-7 is less than 0.001 µg/mL. Also, in the data set on Colon KM20L2, the GI50 worked out at 0.086 µg/mL (≈ 0.235 µM). Moreover, in the data set with Staphylococcus aureus, the “Range of minimum inhibitory concentration, Staphylococcus aureus” value was “* (no inhibition at 64 μg/ml)”. Further, the “Range of minimum inhibitory concentration, Cryptococcus neoformans” value with Cryptococcus neoformans is given as “* (no inhibition at 64 μg/ml)”. In the data set on Micrococcus luteus, the “Range of minimum inhibitory concentration, Micrococcus luteus” value was 32 to 64 µg/mL. Besides, the “Range of minimum inhibitory concentration, Enterococcus faecalis” value in the data set with Enterococcus faecalis is recorded as “* (no inhibition at 64 μg/ml)”. The “Range of minimum inhibitory concentration, Escherichia coli” value with Escherichia coli is recorded as “* (no inhibition at 64 μg/ml)”. Also, the “Range of minimum inhibitory concentration, Neisseria gonorrhoeae” value with Neisseria gonorrhoeae lay in the range of 32 to 64 µg/mL. Further, in the data set on Candida albicans, the “Range of minimum inhibitory concentration, Candida albicans” value is recorded as “* (no inhibition at 64 μg/ml)”. The “Range of minimum inhibitory concentration, Streptococcus pneumoniae” value in the data set on Streptococcus pneumoniae is “* (no inhibition at 64 μg/ml)”. Moreover, the “Range of minimum inhibitory concentration, Enterobacter cloacae” value in the data set with Enterobacter cloacae was “* (no inhibition at 64 μg/ml)”. The “Range of minimum inhibitory concentration, Stenotrophomonas maltophilia” value in [1] is recorded as “* (no inhibition at 64 μg/ml)”. Further, the “Inhibition of colchicine binding % inhibition ± S.D.” value in the data set on tubulin was 89 ± 2%.

In turn, `COc1ccc(/C=C/c2cc(I)c(OC)c(OC)c2)cc1O` [Compound 14b, 3-Iodo-4,4′,5-trimethoxy-3′-hydroxy-E-stilbene] registered a melting point of 111 to 113 °C. Besides, the GI50 in the data set on Pancreas BXPC-3 amounted to 2.7 µg/mL (≈ 6.55 µM). In addition, the GI50 in the data set on Prostate DU-145 is 0.27 µg/mL (≈ 0.655 µM). Also, the GI50 in the data set on CNS SF268 came out at 0.55 µg/mL (≈ 1.33 µM). Moreover, the GI50 with Lung-NSC NCI-H460 was determined as 0.21 µg/mL (≈ 0.509 µM). Besides, in the data set with Breast MCF-7, the GI50 is 0.18 µg/mL (≈ 0.437 µM). Also, in the data set with Colon KM20L2, the GI50 turned out to be 1.7 µg/mL (≈ 4.12 µM). Further, the “Range of minimum inhibitory concentration, Staphylococcus aureus” value in the data set on Staphylococcus aureus was in the range of 8 to 64 µg/mL. The “Range of minimum inhibitory concentration, Cryptococcus neoformans” value in the data set with Cryptococcus neoformans was found to be 64 µg/mL. Also, in the data set on Micrococcus luteus, the “Range of minimum inhibitory concentration, Micrococcus luteus” value was 4 to 8 µg/mL. The “Range of minimum inhibitory concentration, Enterococcus faecalis” value with Enterococcus faecalis is on record as “* (no inhibition at 64 μg/ml)”. In addition, in the data set on Escherichia coli, the “Range of minimum inhibitory concentration, Escherichia coli” value is “* (no inhibition at 64 μg/ml)”. The “Range of minimum inhibitory concentration, Neisseria gonorrhoeae” value in the data set on Neisseria gonorrhoeae was in the range of 4 to 16 µg/mL. Also, the “Range of minimum inhibitory concentration, Candida albicans” value with Candida albicans is “* (no inhibition at 64 μg/ml)”. Moreover, in the data set on Streptococcus pneumoniae, the “Range of minimum inhibitory concentration, Streptococcus pneumoniae” value was “* (no inhibition at 64 μg/ml)”. Besides, in the data set on Enterobacter cloacae, the “Range of minimum inhibitory concentration, Enterobacter cloacae” value was “* (no inhibition at 64 μg/ml)”. Further, in [1], the “Range of minimum inhibitory concentration, Stenotrophomonas maltophilia” value is “* (no inhibition at 64 μg/ml)”.

In turn, `COc1ccc(/C=C\c2cc(I)c(OC)c(I)c2)cc1C(C)=O` [Compound 22c, 3,5-diiodo-4,4′-dimethoxy-3′-acetyl-z-stilbene] had a melting point of 121 to 122 °C.

Turning to “combretastatin A-4 [Compound 1a, reference compound]”, the IC50 with purified tubulin (text b32, read-out: IC50, inhibition of the polymerization reaction) came out at 1.8 µM. Moreover, the “Human cancer cell line inhibition (GI50) Pancreas-a BXPC-3” value with Pancreas BXPC-3 was found to be 0.39 µg/mL. For the same compound, the “Human cancer cell line inhibition (GI50) Prostate DU-145” value in the data set with Prostate DU-145 was 0.0008 µg/mL. For the same compound, in the data set with CNS SF268, the “Human cancer cell line inhibition (GI50) CNS SF268” value is less than 0.001 µg/mL. Besides, the “Human cancer cell line inhibition (GI50) Lung-NSC NCI-H460” value in the data set on Lung-NSC NCI-H460 turned out to be 0.0006 µg/mL. The “Human cancer cell line inhibition (GI50) Colon KM20L2” value in the data set on Colon KM20L2 came to 0.061 µg/mL. Besides, in the data set on tubulin, the “Inhibition of colchicine binding % inhibition ± S.D.” value is recorded as 81 ± 3%.
